Values joined by “and” are separate entries in the source; they are usually repeats but may differ in a detail not shown here. Identical values can stand only once. “Also recorded” adds a separate entry of the source.
What was measured:
[1] = test system: ALK-driven refractory or relapsed neuroblastoma; experiment: Anti-tumor response: best overall response by NANT response criteria version 2.0; type: in vivo, human
Excerpt: (§1) Patients underwent disease staging at baseline, after courses 2 and 4 and then every four courses thereafter. The primary endpoint for response analysis is the BOR, defined as the best response observed before progression or start of another therapy. […] Response was graded according to the NANT response criteria version 2.0 (ref. [26]), modified from the International Neuroblastoma Response Criteria (INRC)[48]. NANT response criteria use three components for assessment of overall response: soft tissue response assessed by anatomical imaging and avidity on MIBG or FDG-PET; bone response assessed by uptake in bone by MIBG or bone involvement on FDG-PET; and bone marrow response assessed by morphology on bilateral aspirates and biopsies. Each response component (soft tissue, bone and bone marrow) are graded as CR, PR, SD and PD. Overall response grading is defined as: CR, if a response of CR in all components that are involved at baseline; PR, if a response of PR or better in all involved components; MR, if a response of PR or better but with at least one involved component as SD and no PD in all involved components; SD, if a response of SD in all involved components; and PD, if a response of PD in at least one involved component. The overall response definitions are identical to overall responses (CR, PR, SD and PD) as defined by the INRC. Response assessment is initially performed by sites and reviewed against source documents by NANT operations. Additional blinded central review of all radiological or pathological data was conducted for patients with overall PR or better and, in addition, radiologic pathological data of all involved sites for patients with MR to assign the final BOR on this study. Response by MIBG was determined using the Curie criteria. RR was determined as the proportion of patients with BOR of CR and PR in each cohort. Based on an international consensus by the National Cancer Institute Clinical Trials Planning Committee to refine tumor site eligibility criteria and evaluation of disease response for early-phase clinical trials in children with high-risk recurrent, refractory and progressive neuroblastoma, we also performed an ad hoc analysis to determine a modified RR that includes the proportion of patients with BOR of CR, PR and MR.

[2] = test system: ALK-driven refractory or relapsed neuroblastoma; experiment: Soft tissue response by RECIST; type: in vivo, human
Excerpt: as §1, with “Based on an international consensus by the National Cancer Institute Clinical Trials Planning Committee to refine tumor site eligibility criteria and evaluation of disease response for early-phase clinical trials in children with high-risk recurrent, refractory and progressive neuroblastoma, we also performed an ad hoc analysis to determine a modified RR that includes the proportion of patients with BOR of CR, PR and MR.” left out

[3] = adults with NSCLC; cited from earlier work
[4] = test system: neuroblastoma-derived xenografts harboring F1174L, F1245C or R1275Q ALK mutations; details: cited from earlier work
[5] = Cohort A1, Dose Level 1, individual patient
[6] = Cohort A1, Dose Level 3, individual patient
[7] = Cohort A1, Dose Level 4, individual patient
[8] = Cohort A2, Dose Level 3A, individual patient
[9] = Cohort A2, Dose Level 4A, individual patient
[10] = Cohort B2 (with topotecan/cyclophosphamide), DL4
[11] = Cohort B2 (with topotecan/cyclophosphamide), DL5
[12] = Cohort B2, Dose Level 4B, individual patient
[13] = Cohort B2, Dose Level 5B, individual patient

In the case of C[C@H]1Oc2cc(cnc2N)-c2c(nn(C)c2C#N)CN(C)C(=O)c2ccc(F)cc21 [Lorlatinib, (10R)-7-amino-12-fluoro-2,10,16-trimethyl-15-oxo-10,15,16,17-tetrahydro-2H-8,4-(metheno)pyrazolo[4,3-h][2,5,11]-benzoxadiazacyclotetradecine-3-carbonitrile], the “patients with PD before or by the end of course 2” value ([1]; <18 years, MYCN-amplified/ALK-mutated neuroblastoma (6/7), cohort A1) is reported as 86%, the “CR, patients” value ([1]; Cohort A1 (N= 23), Total) is reported as 1 and the “MR, patients” value ([1]; Cohort A1 (N= 23), Total) is reported as 4. The “PD, patients” value ([1]; Cohort A1 (N= 23), Total) was 12, the “PR, patients” value ([1]; Cohort A1 (N= 23), Total) was 2 and the “CR+PR Rate” value ([1]; Cohort A1, DL1) was 1/3. The “CR+PR+MR Rate” value ([1]; Cohort A1, DL1) was 2/3, the “CR, patients” value ([1]; Cohort A1, DL1) was 0 and the “MR, patients” value ([1]; Cohort A1, DL1) was 1. For the same compound, the “PD, patients” value ([1]; Cohort A1, DL1) was 1, the “PR, patients” value ([1]; Cohort A1, DL1) was 1 and the “CR+PR Rate” value ([1]; Cohort A1, DL2) was 0/2. The “CR+PR+MR Rate” value ([1]; Cohort A1, DL2) was 0/2, the “CR, patients” value ([1]; Cohort A1, DL2) was 0 and the “MR, patients” value ([1]; Cohort A1, DL2) was 0. The “PD, patients” value ([1]; Cohort A1, DL2) was 2, the “PR, patients” value ([1]; Cohort A1, DL2) was 0 and the “CR+PR Rate” value ([1]; Cohort A1, DL3) was 0/3. The “CR+PR+MR Rate” value ([1]; Cohort A1, DL3) was 0/3, the “CR, patients” value ([1]; Cohort A1, DL3) was 0 and the “MR, patients” value ([1]; Cohort A1, DL3) was 0. The “PD, patients” value ([1]; Cohort A1, DL3) was 2, the “PR, patients” value ([1]; Cohort A1, DL3) was 0 and the “CR+PR Rate” value ([1]; Cohort A1, DL4) was 0/9. The “CR+PR+MR Rate” value ([1]; Cohort A1, DL4) was 2/9, the “CR, patients” value ([1]; Cohort A1, DL4) was 0 and the “MR, patients” value ([1]; Cohort A1, DL4) was 2. For the same compound, the “PD, patients” value ([1]; Cohort A1, DL4) was 5, the “PR, patients” value ([1]; Cohort A1, DL4) was 0 and the “CR+PR Rate” value ([1]; Cohort A1, DL5) was 2/6. The “CR+PR+MR Rate” value ([1]; Cohort A1, DL5) was 3/6, the “CR, patients” value ([1]; Cohort A1, DL5) was 1 and the “MR, patients” value ([1]; Cohort A1, DL5) was 1. For the same compound, the “PD, patients” value ([1]; Cohort A1, DL5) was 2, the “PR, patients” value ([1]; Cohort A1, DL5) was 1 and the “Course Best overall response is achieved” value [1, 5] was 14 and 2. For the same compound, the “Patient status at end of course” value [1, 5] was “Off therapy”, the “Course Best overall response is achieved” value ([1]; Cohort A1, Dose Level 2, individual patient) was 2 and the “Course Best overall response is achieved” value [1, 6] was 2. For the same compound, the “Patient status at end of course” value [1, 6] was “Off therapy”, the “Course Best overall response is achieved” value [1, 7] was 2 and the “Patient status at end of course” value [1, 7] was “Off therapy”. The “Course Best overall response is achieved” value ([1]; Cohort A1, Dose Level 5, individual patient) was 4 and 6 and 2, the “CR, patients” value ([1]; Cohort A2 (N=15), Total) was 4 and the “MR, patients” value ([1]; Cohort A2 (N=15), Total) was 3. For the same compound, the “PD, patients” value ([1]; Cohort A2 (N=15), Total) was 1, the “PR, patients” value ([1]; Cohort A2 (N=15), Total) was 3 and the “CR+PR Rate” value ([1]; Cohort A2, 100 mg) was 2/5. The “CR+PR+MR Rate” value ([1]; Cohort A2, 100 mg) was 3/5, the “CR, patients” value ([1]; Cohort A2, 100 mg) was 0 and the “MR, patients” value ([1]; Cohort A2, 100 mg) was 1. The “PD, patients” value ([1]; Cohort A2, 100 mg) was 1, the “PR, patients” value ([1]; Cohort A2, 100 mg) was 2 and the “CR+PR Rate” value ([1]; Cohort A2, 150 mg) was 5/10. The “CR+PR+MR Rate” value ([1]; Cohort A2, 150 mg) was 7/10, the “CR, patients” value ([1]; Cohort A2, 150 mg) was 4 and the “MR, patients” value ([1]; Cohort A2, 150 mg) was 2. For the same compound, the “PD, patients” value ([1]; Cohort A2, 150 mg) was 0, the “PR, patients” value ([1]; Cohort A2, 150 mg) was 1 and the “Course Best overall response is achieved” value [1, 8] was 6 and 2. The “Patient status at end of course” value [1, 8] was “Off therapy”, the “Course Best overall response is achieved” value [1, 9] was 4 and 10 and 6 and 2 and 1 and the “Patient status at end of course” value [1, 9] was “Ongoing therapy; also recorded: Off therapy”. For the same compound, the “CR, patients” value ([1]; Cohort B2 (N=8), Total) was 1, the “MR, patients” value ([1]; Cohort B2 (N=8), Total) was 3 and the “PD, patients” value ([1]; Cohort B2 (N=8), Total) was 3. The “PR, patients” value ([1]; Cohort B2 (N=8), Total) was 1, the “CR+PR Rate” value [1, 10] was 1/2 and the “CR+PR+MR Rate” value [1, 10] was 1/2. For the same compound, the “CR, patients” value [1, 10] was 1, the “MR, patients” value [1, 10] was 0 and the “PD, patients” value [1, 10] was 1. For the same compound, the “PR, patients” value [1, 10] was 0, the “CR+PR Rate” value [1, 11] was 1/6 and the “CR+PR+MR Rate” value [1, 11] was 4/6. The “CR, patients” value [1, 11] was 0, the “MR, patients” value [1, 11] was 3 and the “PD, patients” value [1, 11] was 2. The “PR, patients” value [1, 11] was 1, the “Course Best overall response is achieved” value [1, 12] was 2 and the “Patient status at end of course” value [1, 12] was “Off therapy”. The “Course Best overall response is achieved” value [1, 13] was 2, the “Patient status at end of course” value [1, 13] was “Ongoing therapy; also recorded: Off therapy” and the “RR (BOR of CR or PR)” value ([1]; cohort A1 (3/23)) was 13%. The “median time to BOR” value ([1]; cohort A1, 11 of 23 patients with SD or better) was “two”, the “patients pre-treated with ALK TKI achieving MR or SD” value ([1]; cohort A1, four of nine) was 44% and the “modified RR (BOR of CR/PR/MR)” value ([1]; cohort A1, single agent, <18 years) was 30%. The “RR (BOR of CR/PR)” value ([1]; cohort A2 (7/15)) was 47%, the “median time to BOR” value ([1]; cohort A2, 14 of 15 patients with SD or better) was “four” and the “modified RR (BOR of CR/PR/MR)” value ([1]; cohort A2, single agent, ≥18 years) was 67%. The “responses in patients with prior ALK TKI” value ([1]; cohort A2, three of five) was 60%, the “median time to BOR of SD or better” value ([1]; cohort B2) was “two” and the “RR (BOR of CR/PR)” value ([1]; cohort B2 (2/8), with topotecan/cyclophosphamide) was 25%. The “patients with MYCN amplification achieving a PR” value ([1]; cohort B2, lorlatinib plus topotecan/cyclophosphamide) was “two of three”, the “modified RR (BOR of CR/PR/MR)” value ([1]; cohort B2, with topotecan/cyclophosphamide, <18 years) was 63% and 62% and the “Course when BOR obtained” value ([1]; individual patients with prior ALK inhibitor, Cohort A1, Dose Level 1) was 2. For the same compound, the “Course when BOR obtained” value ([1]; patients with prior ALK inhibitor, Cohort A1, Dose Level 1) was 2, the “Course when BOR obtained” value ([1]; patients with prior ALK inhibitor, Cohort A1, Dose Level 2) was 2 and the “Course when BOR obtained” value ([1]; patients with prior ALK inhibitor, Cohort A1, Dose Level 3) was 2. For the same compound, the “Course when BOR obtained” value ([1]; patients with prior ALK inhibitor, Cohort A1, Dose Level 4) was 2, the “Course when BOR obtained” value ([1]; patients with prior ALK inhibitor, Cohort A1, Dose Level 5) was 2 and the “Course when BOR obtained” value ([1]; patients with prior ALK inhibitor, Cohort A2, Dose Level 3A) was 2. The “Course when BOR obtained” value ([1]; patients with prior ALK inhibitor, Cohort B2, Dose Level 4B) was 2, the “Course when BOR obtained” value ([1]; patients with prior ALK inhibitor, Cohort B2, Dose Level 5B) was 2 and 1 and the “Course when BOR obtained” value ([1]; prior ALK inhibitor, Cohort A1, Dose Level 2) was 2. The “Course when BOR obtained” value ([1]; prior ALK inhibitor, Cohort A1, Dose Level 3) was 2, the “Course when BOR obtained” value ([1]; prior ALK inhibitor, Cohort A1, Dose Level 4) was 2 and the “Course when BOR obtained” value ([1]; prior ALK inhibitor, Cohort A1, Dose Level 5) was 2. For the same compound, the “Course when BOR obtained” value ([1]; prior ALK inhibitor, Cohort B2, Dose Level 4) was 2, the “Course when BOR obtained” value ([1]; prior ALK inhibitor, Cohort B2, Dose Level 5) was 2 and 1 and the “Soft tissue % change from baseline” value ([2]; Cohort A1, individual patient) was 1% and -3.77% and -4% and -7% and -17% and -21% and -29% and -36% and -41% and -50% and -63% and -70% and -100% and 200% and 121% and 100% and 61% and 20% and 6%. For the same compound, the “Soft tissue % change from baseline” value ([2]; Cohort A2, individual patient) was 1% and -11% and -23% and -27% and -28% and -30% and -41% and -68%, the “Soft tissue % change from baseline” value ([2]; Cohort B2, individual patient) was 1% and -9% and -12% and -45% and the “adult RP2D” value [3] was 100 mg per day. The “anti-tumor doses lower than crizotinib” value ([4]; ALK-driven neuroblastoma pre-clinical models in vivo) was 10–30 fold and the “effect on xenograft tumors” value ([4]; crizotinib-resistant and sensitive xenografts) was “complete tumor regression”.

From paper PMC10202811 (Nature Medicine, 2023)
